In US8815891B2, “Tricyclic derivative or pharmaceutically acceptable salts thereof, preparation method thereof, and pharmaceutical composition containing the same” (Je Il Pharmaceutical Co., Ltd., priority 2008, dated 2014):
Where a name gives a salt, the structure may show the parent alone. Read-outs that look alike come from different tables or passages of the source.

Target: PARP-1 enzyme (Homo sapiens (Human), UniProt P09874)
Assay: Poly(ADP-ribose)polymerase [PARP-1] enzyme inhibitory activity (Trevigen PARP Assay kit)
Assay type: biochemical
Conditions: read-out: PARP-1 Inhibitory activity IC50
Protocol: The activity of the compounds according to the present invention to inhibit the PARP-1 enzyme was examined using a PARP Assay kit (4671-096-K) purchased from Trevigen. The assay was performed following a modified previously reported method by Lee et al [Methods Find, Exp. Clin. Pharmacol., 27, 617-622, 2005].
Histone was coated on 384-well plate, which is a small volume PS plate (784101) of Greiner Bio-One, and left at 25° C. for 2 hours. After that, the plate was rinsed four times with PBS (7.5 mM Na2HPO4, 2.5 mM NaH2PO4, 145 mM NaCl, pH 7.4), and in order to prevent non-specific reaction, the Strep-diluent (provided from kit of Trevigen) was added and left at 25° C. for one hour. After one hour, the plate was again rinsed with PBS four times, and the compounds of the Examples in various concentrations were put into reactant containing PARP-1 enzyme (0.12 unit/well), 2×PARP cocktail (1.95 mM NAD^+, 50 uM biotinylated NAD^+, and activated DNA in 50 mM Tris pH 8.0, 25 mM MgCl2) and allowed to react at 25° C. for 30 minutes. After 30 minutes, each well was rinsed with PBS four times, and in order to measure the amount of rybosylation by the PARP enzyme, strepavidin-linked peroxidase (Strep-HRP, 1:1000 diluted) was added and allowed to react at 37° C. for 30 minutes. The plate was rinsed with PBS four times, and TACS-Sapphire substrate was put and allowed to react at 25° C. for 10 minutes so that color reaction occurred. Finally, the reaction was terminated by the addition of 0.2 N HCl. The amount of histone ribosylation formed by PARP-1 enzyme was quantified at 450 nm using Wallac EnVision™ (PerkinElmer Oy, Turku, Finland).

[1] = PARP-1 enzyme, histone ribosylation, 450 nm

Chain of PARP-1 enzyme (P09874 whole entry): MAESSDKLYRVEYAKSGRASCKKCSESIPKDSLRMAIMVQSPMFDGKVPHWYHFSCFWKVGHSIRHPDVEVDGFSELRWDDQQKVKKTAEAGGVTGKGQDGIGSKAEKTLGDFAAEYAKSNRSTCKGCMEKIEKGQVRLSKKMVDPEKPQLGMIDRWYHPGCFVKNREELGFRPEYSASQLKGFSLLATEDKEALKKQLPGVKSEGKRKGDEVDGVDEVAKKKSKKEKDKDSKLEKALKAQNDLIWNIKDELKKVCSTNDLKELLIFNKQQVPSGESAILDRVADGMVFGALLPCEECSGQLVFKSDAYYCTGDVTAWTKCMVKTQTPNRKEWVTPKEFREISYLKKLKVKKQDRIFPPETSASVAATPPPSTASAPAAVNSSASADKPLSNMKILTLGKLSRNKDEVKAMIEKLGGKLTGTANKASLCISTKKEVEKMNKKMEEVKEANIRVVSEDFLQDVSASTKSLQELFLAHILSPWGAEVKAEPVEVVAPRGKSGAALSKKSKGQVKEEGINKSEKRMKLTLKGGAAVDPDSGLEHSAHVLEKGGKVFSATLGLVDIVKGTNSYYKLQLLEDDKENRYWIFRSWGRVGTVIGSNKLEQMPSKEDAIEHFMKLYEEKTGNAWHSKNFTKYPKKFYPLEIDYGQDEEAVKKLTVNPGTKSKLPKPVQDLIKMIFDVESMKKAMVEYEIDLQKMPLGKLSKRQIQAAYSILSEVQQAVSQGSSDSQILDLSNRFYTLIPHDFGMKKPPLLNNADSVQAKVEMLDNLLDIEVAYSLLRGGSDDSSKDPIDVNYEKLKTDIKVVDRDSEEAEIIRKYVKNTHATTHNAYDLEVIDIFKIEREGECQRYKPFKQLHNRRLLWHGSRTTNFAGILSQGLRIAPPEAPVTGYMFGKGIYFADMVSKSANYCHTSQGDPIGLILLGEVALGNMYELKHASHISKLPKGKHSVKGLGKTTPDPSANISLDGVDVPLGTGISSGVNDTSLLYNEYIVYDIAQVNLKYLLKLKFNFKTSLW

IC50 [1] [nM]	SMILES	IC50 [nM]
> 4000	COc1ccc2c3c(c(=O)[nH]c2c1)CCCN3 [Example 1, 8-Methoxy-1,2,3,4-tetrahydrobenzo[h][1,6]naphthyridine-5(6H)-one hydrochloride]	–
500	COc1ccc2[nH]c(=O)c3c(c2c1)NCCC3 [Example 3, 9-Methoxy-1,2,3,4-tetrahydrobenzo[h][1,6]naphthyridine-5(6H)-one hydrochloride]	–
> 4000	CCCN1CCCc2c1c1cc(OC)ccc1[nH]c2=O [Example 6, 9-Methoxy-1-propyl-1,2,3,4-tetrahydrobenzo[h][1,6]naphthyridine-5(6H)-one hydrochloride]	–
> 4000	CN1CCCc2c1c1ccccc1[nH]c2=O [Example 7, 1-Methyl-1,2,3,4-tetrahydrobenzo[h][1,6]naphthyridine-5(6H)-one hydrochloride]	–
> 4000	COc1ccc2[nH]c(=O)c3c(c2c1)N(C)CCC3 [Example 8, 9-Methoxy-1-methyl-1,2,3,4-tetrahydrobenzo[h][1,6]naphthyridine-5(6H)-one hydrochloride]	–
> 4000	CCN1CCCc2c1c1cc(OC)ccc1[nH]c2=O [Example 9, 1-Ethyl-9-methoxy-1,2,3,4-tetrahydrobenzo[h][1,6]naphthyridine-5(6H)-one hydrochloride]	–
> 4000	CN1CCCc2c1c1cc(O)ccc1[nH]c2=O [Example 10, 1-Methyl-9-hydroxy-1,2,3,4-tetrahydrobenzo[h][1,6]naphthyridine-5(6H)-one hydrochloride]	–
–	CCCN1CCC(Oc2ccc3[nH]c(=O)c4c(c3c2)NCCC4)CC1 [Example 11, 9-(1-Propylpiperidine-4-yloxy)-1,2,3,4-tetrahydrobenzo[h][1,6]naphthyridine-5(6H)-one dihydrochloride]	1030
–	CN1CCC(Oc2ccc3[nH]c(=O)c4c(c3c2)NCCC4)CC1 [Example 12, 9-(1-Methylpiperidine-4-yloxy)-1,2,3,4-tetrahydrobenzo[h][1,6]naphthyridine-5(6H)-one dihydrochloride]	1070
–	CN1CCCc2c1c1cc(OC3CCNCC3)ccc1[nH]c2=O [Example 13, 1-Methyl-9-(piperidine-4-yloxy)-1,2,3,4-tetrahydrobenzo[h][1,6]naphthyridine-5(6H)-one dihydrochloride]	3850
> 4000	CN1CCC(Oc2ccc3[nH]c(=O)c4c(c3c2)N(C)CCC4)CC1 [Example 14, 1-Methyl-9-(1-methylpiperidine-4-yloxy)-1,2,3,4-tetrahydrobenzo[h][1,6]naphthyridine-5(6H)-one dihydrochloride]	–
–	O=c1[nH]c2ccc(OCCN3CCNCC3)cc2c2c1CCCN2 [Example 19, 9-[2-(Piperazine-1yl)ethoxy]-1,2,3,4-tetrahydrobenzo[h][1,6]naphthyridine-5(6H)-one trihydrochloride]	1480
> 4000	O=c1[nH]c2ccc(OCCCN3CCCCC3)cc2c2c1CCCN2 [Example 21, 9-[3-(Piperidine-1yl)propoxy]-1,2,3,4-tetrahydrobenzo[h][1,6]naphthyridine-5(6H)-one dihydrochloride]	–
–	NCCOc1ccc2[nH]c(=O)c3c(c2c1)NCCC3 [Example 22, 9-(2-Aminoethoxy)-1,2,3,4-tetrahydrobenzo[h][1,6]naphthyridine-5(6H)-one dihydrochloride]	1160
–	O=c1[nH]c2ccc(OCCN3CCC(c4ccccc4)CC3)cc2c2c1CCCN2 [Example 23, 9-[2-(4-Phenylpiperidine-1yl)ethoxy]-1,2,3,4-tetrahydrobenzo[h][1,6]naphthyridine-5(6H)-one dihydrochloride]	1430
1080	O=c1[nH]c2ccc(OCCO)cc2c2c1CCCN2 [Example 24, 9-(2-Hydroxyethoxy)-1,2,3,4-tetrahydrobenzo[h][1,6]naphthyridine-5(6H)-one hydrochloride]	–
> 4000	O=c1[nH]c2ccc(OCCc3ccccc3)cc2c2c1CCCN2 [Example 25, 9-Penethoxy-1,2,3,4-tetrahydrobenzo[h][1,6]naphthyridine-5(6H)-one dihydrochloride]	–
–	O=c1[nH]c2ccc(OCCN3CCOCC3)cc2c2c1CCCN2 [Example 27, 9-(2-Morpholinoethoxy)-1,2,3,4-tetrahydrobenzo[h][1,6]naphthyridine-5(6H)-one dihydrochloride]	2640
> 4000	CC[N+]1(CC)CCN(CCOc2ccc3[nH]c(=O)c4c(c3c2)NCCC4)CC1 [Example 28, 1,1-Diethyl-4-[2-(5-oxo-1,2,3,4,5,6-hexahydrobenzo[h][1,6]naphthyridine-9-yloxy]ethyl)piperazine-1-ium chloride]	–
–	CN1CCCc2c1c1cc(OCCN3CCCCC3)ccc1[nH]c2=O [Example 30, 1-Methyl-9-[2-(piperidine-1-yl)ethoxy]-1,2,3,4-tetrahydrobenzo[h][1,6]naphthyridine-5(6H)-one dihydrochloride]	3110
1070	CN(C)CCc1ccc2[nH]c(=O)c3c(c2c1)NCCC3 [Example 31, 9-[2-(Dimethylamino)ethyl]-1,2,3,4-tetrahydrobenzo[h][1,6]naphthyridine-5(6H)-one dihydrochloride]	–
–	O=c1[nH]c2cc(OCCN3CCCCC3)ccc2c2c1CCCN2 [Example 35, 8-[2-(Piperidine-1yl)ethoxy]-1,2,3,4-tetrahydrobenzo[h][1,6]naphthyridine-5(6H)-one dihydrochloride]	3540
–	CN(C)CCCOc1ccc2c3c(c(=O)[nH]c2c1)CCCN3 [Example 36, 8-[3-(Dimethylamino)propoxy]-1,2,3,4-tetrahydrobenzo[h][1,6]naphthyridine-5(6H)-one dihydrochloride]	3020
–	CCc1ccc2c3c(c(=O)[nH]c2c1)CCCN3 [Example 40, 8-Ethyl-1,2,3,4-tetrahydrobenzo[h][1,6]naphthyridine-5(6H)-one hydrochloride]	> 4000
–	CC(C)NCc1ccc2c3c(c(=O)[nH]c2c1)CCCN3 [Example 45, 8-[(Isopropylamino)methyl]-1,2,3,4-tetrahydrobenzo[h][1,6]naphthyridine-5(6H)-one dihydrochloride]	260
–	CCCNCc1ccc2c3c(c(=O)[nH]c2c1)CCCN3 [Example 46, 8-[(Propylamino)methyl]-1,2,3,4-tetrahydrobenzo[h][1,6]naphthyridine-5(6H)-one dihydrochloride]	590

SMILES	IC50 [1] [nM]	IC50 [nM]
CN(C)CCOc1ccc2[nH]c(=O)c3c(c2c1)NCCC3 [Example 16, 9-[2-(Dimethylamino)ethoxy]-1,2,3,4-tetrahydrobenzo[h][1,6]naphthyridine-5(6H)-one dihydrochloride]	< 1000	370
CCN(CC)CCOc1ccc2[nH]c(=O)c3c(c2c1)NCCC3 [Example 26, 9-[2-(Diethylamino)ethoxy]-1,2,3,4-tetrahydrobenzo[h][1,6]naphthyridine-5(6H)-one dihydrochloride]	< 1000	390
CN(C)CCCc1ccc2[nH]c(=O)c3c(c2c1)NCCC3 [Example 33, 9-[3-(Dimethylamino)propyl]-1,2,3,4-tetrahydrobenzo[h][1,6]naphthyridine-5(6H)-one dihydrochloride]	< 1000	930
CNC(C)c1ccc2c3c(c(=O)[nH]c2c1)CCCN3 (stereo not shown) [Example 39, 8-[1-(Methylamino)ethyl]-1,2,3,4-tetrahydrobenzo[h][1,6]naphthyridine-5(6H)-one dihydrochloride]	< 1000	100
